Source: US6306822A, “Phosphopeptides and methods of treating bone diseases” (Big Bear Bio, Inc., priority 1998, dated 2001)

Legend:
ovariectomized rats = assay: Ovariectomized rat osteoporosis model, femur bone mineral content by DEXA; assay type: in vivo, Harlan-Sprague-Dawley rats; settings: Day 45, femur, OVX rats; compared with sham (positive) and OVX saline (negative) controls; doses and routes per b114 table
Procedure: Ovariectomized rats were chosen for the efficacy study of O-phosphoserine containing polypeptides. Ovaries were surgically resected from young female Harlan-Sprague-Dawley rats. Sham-operated rats were also prepared to use as positive controls.
After 7 days acclimation, the ovariectomized (OVX) rats were randomly divided into different treatment groups (6 animals per each group). Six sham-operated rats were assigned to the positive control group. Each group was fed a normal rat diet throughout the test period but received different treatments as summarized below: […]
The test samples four groups 3, 4, 5, and 6 were dissolved in saline and administered at once. Total volume of the sample solution was 1 ml and 0.1 ml per animal for oral and parenteral administration, respectively. Oral preparations were administered once a day and injection (s.c.) was every three days.
The group receiving the highest amount of oral Pse (group 3) was used to compare the efficacy of monomeric Pse versus Pse contained in a polypeptide.
On Days 0, 45, and 90 of the treatment, the femurs of most of the participating animals were subject to DEXA (dual energy X-ray absorptiometry) measurement, a typical method by which to study the status of bone growth. The animals were anesthetized and fixed on the bed when receiving the DEXA scan. […]

[1] = system: bone formation and resorption; assay: In vitro or ex vivo bone formation and resorption assay systems; settings: typical in vitro or ex vivo bone formation and resorption assay systems
Source text: The mechanism of action of these polypeptides is not completely understood. […] These peptides may increase to bone formation by attracting calcium which is solubilized in the biological fluids (serum, bone marrow, and so on, etc.). In addition, these peptides may have an effect on the formation or cross-linking of bone matrix proteins, by forming hydroxyapatite on or between such matrix proteins.

## N[C@@H](COP(=O)(O)O)C(=O)O [Pse, O-phosphoserine]
Ovariectomized rats
  bone mineral content (BMC) measured by DEXA: close to that of the negative control
[1]
  biological effect on bone: neither the O-phosphoserine-containingpolypeptides nor O-phosphoserine monomer had any biological effect
